Patent US20240246957A1, “Diazepane Derivatives, Processes for their Preparation, and Uses thereof for the Amelioration, Prevention and/or Treatment of Mental and Neurological Diseases” (2N Pharma ApS, priority 2021, published 2024)

Experiments:
[1] = system: SOD1 G93A mice; assay: Efficacy study (survival) in SOD1 G93A mouse model of ALS; assay type: in vivo; conditions: compared to vehicle, Edaravone and Riluzole, survival = neurological score below 4, FIG. 2
Experimental: All experiments were approved by the Danish Animal Experiment Inspectorate (2017-15-0202-00088) and followed the National and European guidelines for conducting animal experiments. Animal experiments was conducted according to the ARRIVE guidelines. Mice were housed in IVC cages in a high barrier facility at Aalborg University, Denmark with a room temperature of 21° C. The mice were kept at a 12-hour light/dark cycle and had ad libitum access to food and water.
B6.Cg-Tg(SOD1*G93A)1Gur/J mice (Stock #004435) (SOD1) were purchased from Jackson Laboratory (Bar Harbor, USA). The congenic SOD1 mice were maintained in our animal facility by crossing hemizygote SOD1 male mice with female C57BI/6J mice. Litters were genotyped according to established protocol using DNA extracted from ear tissue punches. Male SOD1 mice were used to maintain the colony, and SOD1 female and their wildtype littermates were used for experiments. All animals were assessed for human endpoints daily, weight twice a week, and neurological score once a week. SOD1 females (n=4) were evaluated at baseline and day 128 for cylinder, dark-light and y-maze tests, and at baseline and day 142 by neurological score, grip strength, hangwire test and rotarod. […] In addition, survival was evaluated as described under neurological score, onset of disease and survival analysis.
Mice were evaluated by the same experimenter weekly. […]

[2] = system: HEK293 cells; assay: Fatty acid uptake assay using HEK293 cells; assay type: cell-based; conditions: Homo sapiens, CPT1 inhibitor, racemic mixture, FIG. 1
Experimental: HEK293 cells were thawed and centrifuged at 400 g in 1 min, whereafter the supernatant was discarded. The cells were resuspended in DMEM+GlutaMax medium (cat #10566016, Invitrogen) containing 10% fetal calf serum (cat #10270-106, Invitrogen) and 1% penicillin/streptomycin (cat #15140-122, Life Technologies). HEK293 cells were seeded into a T25 flask and incubated at 37 degrees Celsius until 80% confluency. When the HEK293 cells reached confluency, cells were counted and seeded in a 96-well plate and with a volume of 10.000 cells/well in medium (as described above) and incubated overnight. Three wells were without cells serving as controls.
The cells were divided into two groups: 1) Example 1, and 2) Untreated. The fatty acid uptake assay (cat #408-100, BioVision) was carried out according to the protocol from BioVision. The only exception to the protocol was that the measurements in the PerkinElmer Multimode Plate Reader Enspire instrument was running overnight.
Statistics was performed in GraphPad Prism version 8.0. Repeated measure two-way ANOVA were conducted as the groups were tested multiple times followed by a multiple comparison Bonferroni post hoc test.

SMILES | survival [1] | IC50 [2] [nM]
CC(=O)N1CCC(c2nc(-c3ccncc3)cs2)N(C(=O)COc2ccccc2)CC1 (single isomer, unassigned) [Example 1-E2] | improved survival | –
CC(=O)N1CCC(c2nc(-c3ccncc3)cs2)N(C(=O)COc2ccccc2)CC1 (single isomer, unassigned) [Example 1, 1-(4-acetyl-7-(4-(pyridin-4-yl)thiazol-2-yl)-1,4-diazepan-1-yl)-2-phenoxyethan-1-one] | – | 300
CC(=O)N1CCC(c2nc(-c3ccncc3)cs2)N(C(=O)COc2ccccc2)CC1 (single isomer, unassigned) [Example 1-E1] | improved survival | –
